Assay results: PMC3570588 (ChemMedChem, 2012)
In brackets after ≈: the same amount, converted by molar mass.

What was measured:
B. anthracis Sterne = assay type: cell-based, Bacillus anthracis
S. aureus DHFR = S. aureus DHFR (Staphylococcus aureus, UniProt P0A017); assay type: biochemical; conditions: read-out: Ki, nM (SEM) S. aureus 29213; pH 7.0, 30 °C
S. aureus 29213 = assay type: cell-based, Staphylococcus aureus
B. anthracis DHFR = B. anthracis DHFR (Bacillus anthracis, UniProt Q81R22); assay type: biochemical; conditions: read-out: Ki, nM (SEM) B. anthracis Sterne; pH 7.0, 30 °C
B. anthracis DHFR, sequence (Q81R22 1-162): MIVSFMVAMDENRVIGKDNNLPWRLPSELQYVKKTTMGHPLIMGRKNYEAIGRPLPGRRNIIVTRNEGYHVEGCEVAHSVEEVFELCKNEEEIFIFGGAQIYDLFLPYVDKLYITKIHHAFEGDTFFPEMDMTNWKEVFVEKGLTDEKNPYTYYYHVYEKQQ

S. aureus DHFR, sequence (P0A017 whole entry): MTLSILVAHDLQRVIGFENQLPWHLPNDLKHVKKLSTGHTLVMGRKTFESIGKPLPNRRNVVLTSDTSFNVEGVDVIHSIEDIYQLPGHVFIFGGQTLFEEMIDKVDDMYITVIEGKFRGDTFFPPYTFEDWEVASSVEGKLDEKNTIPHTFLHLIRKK

## CCCc1nc(N)nc(N)c1Cc1cc(/C=C/C(=O)N2N=Cc3ccccc3C2C=C(C)C)c(OC)c(OC)c1 (racemic) [Compound 12c, (±)-(E)-3-{5-[(2,4-Diamino-6-propyl-5-pyrimidinyl)methyl]-2,3-dimethoxyphenyl}-1-(1-isobutenyl-2(1H)-phthalazinyl)-2-propen-1-one]
B. anthracis Sterne
  MIC, μg/mL B. anthracis Sterne: 2 µg/mL (≈ 3.7 µM)
S. aureus DHFR
  Ki: 4.1 nM
S. aureus 29213
  MIC, μg/mL S. aureus 29213: 2 µg/mL (≈ 3.7 µM)

## CCc1nc(N)nc(N)c1Cc1cc(/C=C/C(=O)N2N=Cc3ccccc3C2C=C(C)C)c(OC)c(OC)c1 (racemic) [Compound 12b, (±)-(E)-3-{5-[(2,4-Diamino-6-ethyl-5-pyrimidinyl)methyl]-2,3-dimethoxyphenyl}-1-(1-isobutenyl-2(1H)-phthalazinyl)-2-propen-1-one]
B. anthracis Sterne
  MIC, μg/mL B. anthracis Sterne: 4 µg/mL (≈ 7.6 µM)
S. aureus DHFR
  Ki: 2.9 nM
S. aureus 29213
  MIC, μg/mL S. aureus 29213: 0.25 to 0.5 µg/mL
B. anthracis DHFR
  Ki: 25.4 nM

## CCCC1c2ccccc2C=NN1C(=O)/C=C/c1cc(Cc2c(C)nc(N)nc2N)cc(OC)c1OC (racemic) [Compound 11a, (±)-(E)-3-{5-[(2,4-Diamino-6-methyl-5-pyrimidinyl)methyl]-2,3-dimethoxyphenyl}-1-(1-propyl-2(1H)-phthalazinyl)-2-propen-1-one]
B. anthracis Sterne
  MIC, μg/mL B. anthracis Sterne: 8 µg/mL (≈ 16 µM)
S. aureus DHFR
  Ki: 4.5 nM
S. aureus 29213
  MIC, μg/mL S. aureus 29213: 0.5 µg/mL (≈ 0.999 µM)
B. anthracis DHFR
  Ki: 72.4 nM

## COc1cc(Cc2c(C)nc(N)nc2N)cc(/C=C/C(=O)N2N=Cc3ccccc3C2C=C(C)C)c1OC (racemic) [Compound 12a, (±)-(E)-3-{5-[(2,4-Diamino-6-methyl-5-pyrimidinyl)methyl]-2,3-dimethoxyphenyl}-1-(1-isobutenyl-2(1H)-phthalazinyl)-2-propen-1-one]
B. anthracis Sterne
  MIC, μg/mL B. anthracis Sterne: 4 µg/mL (≈ 7.8 µM)
S. aureus DHFR
  Ki: 3.4 nM
S. aureus 29213
  MIC, μg/mL S. aureus 29213: 0.25 to 0.5 µg/mL
B. anthracis DHFR
  Ki: 14.3 nM

## CCCc1nc(N)nc(N)c1Cc1cc(/C=C/C(=O)N2N=Cc3ccccc3C2CCC)c(OC)c(OC)c1 (racemic) [Compound 11c, (±)-(E)-3-5-[(2,4-Diamino-6-propyl-5-pyrimidinyl)methyl]-2,3-dimethoxyphenyl}-1-(1-propyl-2(1H)-phthalazinyl)-2-propen-1-one]
B. anthracis Sterne
  MIC, μg/mL B. anthracis Sterne: 1 µg/mL (≈ 1.89 µM)
S. aureus DHFR
  Ki: 4 nM
S. aureus 29213
  MIC, μg/mL S. aureus 29213: 1 to 2 µg/mL

## CCCC1c2ccccc2C=NN1C(=O)/C=C/c1cc(Cc2c(N)nc(N)nc2CC)cc(OC)c1OC (racemic) [Compound 11b, (±)-(E)-3-5-[(2,4-Diamino-6-ethyl-5-pyrimidinyl)methyl]-2,3-dimethoxyphenyl}-1-(1-propyl-2(1H)-phthalazinyl)-2-propen-1-one]
B. anthracis Sterne
  MIC, μg/mL B. anthracis Sterne: 4 µg/mL (≈ 7.77 µM)
S. aureus DHFR
  Ki: 3.6 nM
S. aureus 29213
  MIC, μg/mL S. aureus 29213: 0.5 to 2 µg/mL
